Assays:
[1] = tested on: CCRF-CEM (childhood T-cell acute lymphoblastic leukaemia); test: MTS cytotoxicity assay, CCRF-CEM; format: cell-based; details: Homo sapiens, 72 h, read-out: IC50 cytotoxic activity CCRF-CEM
Description: (§1) The p53 deficient variant, HCT116p53−/−, was purchased from Horizon Discovery (Cambridge, UK). The daunorubicin-resistant CCRF-CEM cell line CEM-DNR bulk and paclitaxel-resistant K562-TAX sublines were developed in-house by exposing parental cell lines to escalating concentrations of daunorubicin and paclitaxel, respectively. Cells were maintained in the recommended culture medium (Sigma-Aldrich, St. Louis, MO) supplemented with 10% foetal calf serum, 100 U/mL penicillin, and 100 μg/mL streptomycin. The HUVEC line was obtained from PromoCell (Heidelberg, Germany). The cells were cultured in endothelial cell growth medium with SupplementMix for endothelial cells (PromoCell, Heidelberg, Germany). The incubation conditions were a humidified atmosphere of 95% air and 5% CO2 at 37 °C[10]. Cells were seeded in 384-well plates and after overnight incubation treated with compounds. All tested compounds were dissolved in 100% DMSO, and fourfold serial dilutions were performed using an Echo550 liquid handler (Labcyte, San Jose, CA). The experiments were performed in technical duplicates and three biological replicates. Cells were incubated with compounds for 72 h and thereafter 5 μL of MTS reagent was added to each well.

CCRF-CEM lymphoblasts [2] = test: Cell cycle analysis by flow cytometry (propidium iodide); format: cell-based, human
Description: (§2) To further characterise the mode of action of studied compounds, we analysed the cell cycle profile of CCRF-CEM cells treated with compounds for 24 h. […] The compounds ED1–ED9 and ED12 induced arrest in G2/M phase of the cell cycle (Figure 2(A)). To differentiate between G2 block and mitotic arrest, we used phospho-histone H3 (Ser10) mitotic marker (Figure 2(B)). […] Generally, dimers induced a dose-dependent increase of sub G1 cell population with fragmented DNA except for ED2 and ED4 (Figure 2(C)). […] To assess the proliferation of treated cells, they were subjected to 5-bromo-2-deoxyuridine (BrDU) labelling. […] Analogously, changes in 5-bromouridine (BrU) incorporation were examined to monitor overall RNA synthesis.
(§3) Treated CCRF-CEM cells were harvested, washed with ice-cold phosphate-buffered saline (PBS), fixed in cold 70% ethanol and stored at −20 °C. Prior to analysis, fixed cells were permeabilised with 0.25% Triton X-100 in PBS for 15 min, blocked in 1% bovine serum, and incubated with anti-phospho-Histone H3 (Ser^10) antibody (Merck Millipore, Burlington, MA). Subsequently, the cells were treated with 50 μg/mL RNAse, stained with propidium iodide and analysed by FACSCalibur (Becton Dickinson, Franklin Lakes, NJ) flow cytometer at 488 nm. Cell cycle distribution (G1, S, and G2/M) was analysed using ModFitLT software (Verity, Topsham, ME), and reflects only viable population prior to the fixing procedure. Particles with lower propidium iodide content than G1 phase cells were classified as non-viable cells with fragmented DNA. Flow cytometry data visualisation was performed using OriginPro 2018b (b9.5.5.409) software (OriginLab Corporation, Northampton, MA)[10].

[3] = MTS cytotoxicity assay, HUVEC; format: cell-based; details: human
Description: as §1

CCRF-CEM lymphoblasts [4] = test: BrDU incorporation analysis (DNA synthesis); format: cell-based, human
Description: as §2
Thirty minutes before harvesting, cells were pulse-labelled with 10 μM BrDU. After overnight fixation in ice-cold 70% ethanol, cells were resuspended in 2 M HCl for 30 min at room temperature (RT), then washed with 0.1 M Na2B4O7 and blocked with PBS containing 0.5% Tween-20 and 1% BSA. BrDU incorporation was analysed using anti-BrdU antibody clone MoBu-1 (Exbio, Vestec, Czech Republic) and a secondary anti-mouse-FITC antibody (Sigma-Aldrich, St. Louis, MO). Cells were washed with PBS and stained with 0.1 mg/mL propidium iodide and 0.5 mg/mL RNase A for 1 h at RT and analysed by flow cytometry using a 488 nm single beam laser (FACSCalibur, Becton Dickinson, Franklin Lakes, NJ). The percentage of cells with incorporated BrDU was analysed using CellQuest software.

[5] = MTS cytotoxicity assay, MRC-5; format: cell-based; details: human
Description: as §1

[6] = tested on: CEM-DNR (daunorubicin resistant variant of CCRF-CEM); test: MTS cytotoxicity assay, CEM-DNR; format: cell-based, human; details: for IC50: Homo sapiens, CEM-DNR, 72 h, read-out: IC50 cytotoxic activity CEM-DNR
Description: as §1

[7] = tested on: A549 (lung adenocarcinoma); test: MTS cytotoxicity assay, A549; format: cell-based, human; details: Homo sapiens, A549, 72 h, read-out: IC50 cytotoxic activity A549
Description: as §1

[8] = tested on: HCT116p53−/− (p53 gene null variant of HCT116); test: MTS cytotoxicity assay, HCT116p53−/−; format: cell-based; details: Homo sapiens, HCT-116, 72 h, read-out: IC50 cytotoxic activity HCT116p53-
Description: as §1

[9] = tested on: K562 (chronic myelogenous leukaemia); test: MTS cytotoxicity assay, K562; format: cell-based; details: Homo sapiens, K562, 72 h, read-out: IC50 cytotoxic activity K562
Description: as §1

[10] = tested on: K562-TAX (paclitaxel-resistant variant of K562); test: MTS cytotoxicity assay, K562-TAX; format: cell-based, human; details: for IC50: Homo sapiens, K562-Tax, 72 h, read-out: IC50 cytotoxic activity K562-TAX
Description: as §1

porcine brain tubulin = biological target: T1, porcine brain tubulin (Sus scrofa, UniProt P02550+P02554); test: Tubulin polymerisation assay; format: biochemical; details: 10 μmol/L, Vmax relative to DMSO
T1 construct: purchased Cytoskeleton, Denver, CO; host or cells: porcine brain (tissue-purified)
Description: Tubulin polymerisation assay kit (Cytoskeleton, Denver, CO) was used according to the manufacturer’s instructions. Polymerisation of porcine brain tubulin (>99% purity) was measured using an EnVision Multilabel Plate Reader (PerkinElmer, Waltham, MA) at 37 °C, in the presence of either 10 μmol/L test compounds or DMSO. Maximum polymerisation velocity (Vmax) was calculated from the polymerisation curves. Data visualisation was performed in OriginPro 2018b (b9.5.5.409) software (OriginLab Corporation, Northampton, MA)[10].

U2OS (osteosarcoma) = test: MTS cytotoxicity assay, U2OS; format: cell-based, human; details: Homo sapiens, U2OS, 72 h, read-out: IC50 cytotoxic activity U2OS
Description: as §1

[11] = MTS cytotoxicity assay, BJ; format: cell-based; details: human
Description: as §1

CCRF-CEM lymphoblasts [12] = test: Phospho-histone H3 (Ser10) mitotic marker, flow cytometry; format: cell-based, human
Description: as §2, §3

CCRF-CEM lymphoblasts [13] = test: BrU incorporation analysis (RNA synthesis); format: cell-based, human
Description: as §2
Prior to the trypsinisation, cells were treated with 1 mM BrU for 30 min. Subsequently, the cells were fixed in 1% paraformaldehyde with 0.05% of NP-40 for 15 min at RT and stored overnight at 4 °C. Fixed cells were washed with 1% glycine in PBS and stained with primary anti-BrdU antibody clone MoBu-1 crossreacting with BrU (Exbio, Vestec, Czech Republic) for 30 min at RT, washed with PBS and labelled with secondary anti-mouse-FITC antibody (Sigma-Aldrich, St. Louis, MO). Following 1-h incubation in 1% paraformaldehyde containing 0.05% NP-40, cells were stained with propidium iodide (0.1 mg/mL) and treated with RNase A (0.5 mg/mL) for 1 h at RT. The percentage of BrU positive cells was quantified using CellQuest software.

[14] = tested on: HCT116 (colorectal adenocarcinoma); test: MTS cytotoxicity assay, HCT116; format: cell-based; details: Homo sapiens, HCT-116, 72 h, read-out: IC50 cytotoxic activity HCT116
Description: as §1

T1 sequence (P02550 whole entry): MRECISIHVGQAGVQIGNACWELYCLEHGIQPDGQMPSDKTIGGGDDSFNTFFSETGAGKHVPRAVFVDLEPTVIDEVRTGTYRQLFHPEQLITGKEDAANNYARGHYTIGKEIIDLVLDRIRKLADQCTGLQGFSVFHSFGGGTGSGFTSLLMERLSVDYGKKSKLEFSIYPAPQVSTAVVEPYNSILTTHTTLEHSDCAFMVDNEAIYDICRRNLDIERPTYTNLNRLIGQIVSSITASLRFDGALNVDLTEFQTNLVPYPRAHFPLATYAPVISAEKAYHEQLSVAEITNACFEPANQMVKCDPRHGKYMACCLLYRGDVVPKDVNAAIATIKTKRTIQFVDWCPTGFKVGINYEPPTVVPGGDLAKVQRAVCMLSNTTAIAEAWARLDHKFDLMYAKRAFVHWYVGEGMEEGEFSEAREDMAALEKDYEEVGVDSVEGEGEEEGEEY
T1 sequence (P02554 whole entry): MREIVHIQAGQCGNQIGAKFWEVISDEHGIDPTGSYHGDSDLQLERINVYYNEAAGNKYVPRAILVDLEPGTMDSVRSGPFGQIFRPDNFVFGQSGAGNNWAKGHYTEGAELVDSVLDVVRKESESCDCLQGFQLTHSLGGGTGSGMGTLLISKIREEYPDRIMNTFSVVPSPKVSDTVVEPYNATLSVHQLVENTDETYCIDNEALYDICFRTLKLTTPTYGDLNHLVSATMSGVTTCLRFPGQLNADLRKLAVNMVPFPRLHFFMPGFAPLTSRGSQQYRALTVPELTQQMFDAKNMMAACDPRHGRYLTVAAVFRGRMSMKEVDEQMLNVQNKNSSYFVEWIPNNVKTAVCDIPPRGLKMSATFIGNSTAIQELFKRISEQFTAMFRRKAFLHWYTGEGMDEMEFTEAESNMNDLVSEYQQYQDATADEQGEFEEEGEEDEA

Structure (SMILES): COc1c(Cn2cc([C@]3(O)CC[C@H]4[C@@H]5CCc6cc(O)ccc6[C@H]5CC[C@@]43C)nn2)cc(C)cc1Cn1cc([C@]2(O)CC[C@H]3[C@@H]4CCc5cc(O)ccc5[C@H]4CC[C@@]32C)nn1 [ED8, (17β,17′β)-17,17′-[(2-Methoxy-5-methylbenzene-1,3-diyl)bis(methanediyl-1H-1,2,3-triazole-1,4-diyl)]bisestra-1,3,5(10)-triene-3,17-diol]
- IC50 [1]: 1.38 ± 0.18 µM
- <G1 (sub-G1, fragmented DNA), % of positive cells (CCRF-CEM lymphoblasts [2]; 1×IC50, 24 h): 16.29%
- >G2/M (polyploidy), % of positive cells (CCRF-CEM lymphoblasts [2]; 1×IC50, 24 h): 7.25%
- G0/G1, % of positive cells (CCRF-CEM lymphoblasts [2]; 1×IC50, 24 h): 34.59%
- G2/M, % of positive cells (CCRF-CEM lymphoblasts [2]; 1×IC50, 24 h): 31.94%
- S, % of positive cells (CCRF-CEM lymphoblasts [2]; 1×IC50, 24 h): 33.47%
- <G1 (sub-G1, fragmented DNA), % of positive cells (CCRF-CEM lymphoblasts [2]; 5×IC50, 24 h): 24.86%
- >G2/M (polyploidy), % of positive cells (CCRF-CEM lymphoblasts [2]; 5×IC50, 24 h): 10.51%
- G0/G1, % of positive cells (CCRF-CEM lymphoblasts [2]; 5×IC50, 24 h): 4.71%
- G2/M, % of positive cells (CCRF-CEM lymphoblasts [2]; 5×IC50, 24 h): 78.93%
- S, % of positive cells (CCRF-CEM lymphoblasts [2]; 5×IC50, 24 h): 16.36%
- IC50 at 72 h [3]: 0.079 ± 0.048 µM
- BrDU, % of positive cells (CCRF-CEM lymphoblasts [4]; 1×IC50, 24 h): 45.06%
- BrDU, % of positive cells (CCRF-CEM lymphoblasts [4]; 5×IC50, 24 h): 5.15%
- IC50 at 72 h [5]: > 50 µM
- IC50 cytotoxic activity CEM-DNR [6]: maintained its activity
- IC50 [6]: 3.44 ± 0.69 µM
- IC50 [7]: > 50 µM
- IC50 [8]: 2.01 ± 0.12 µM
- IC50 [9]: 0.69 ± 0.15 µM
- IC50 cytotoxic activity K562-TAX [10]: sensitive
- IC50 [10]: 13.1 ± 3.69 µM
- inhibitory activity against tubulin polymerisation (in words) (porcine brain tubulin): comparable or better inhibitory activity
- IC50 (U2OS (osteosarcoma)): 6.93 ± 1.16 µM
- IC50 at 72 h [11]: > 50 µM
- pH3Ser10, % of positive cells (CCRF-CEM lymphoblasts [12]; 1×IC50, 24 h): 11.01%
- pH3Ser10, % of positive cells (CCRF-CEM lymphoblasts [12]; 5×IC50, 24 h): 0.63%
- BrU, % of positive cells (CCRF-CEM lymphoblasts [13]; 1×IC50, 24 h): 59.19%
- BrU, % of positive cells (CCRF-CEM lymphoblasts [13]; 5×IC50, 24 h): 3.11%
- IC50 [14]: 1.77 ± 0.16 µM

Structure (SMILES): Cc1cc(C)c(Cn2cc([C@]3(O)CC[C@H]4[C@@H]5CCc6cc(O)ccc6[C@H]5CC[C@@]43C)nn2)cc1Cn1cc([C@]2(O)CC[C@H]3[C@@H]4CCc5cc(O)ccc5[C@H]4CC[C@@]32C)nn1 [ED9, 17,17′-[(4,6-Dimethyl-1,3-phenylene)bis(methylene-1H-1,2,3-triazole-1,4-diyl)]di[estra-1,3,5(10)-triene-3,17β-diol]]
- IC50 [1]: 1.69 ± 0.057 µM
- <G1 (sub-G1, fragmented DNA), % of positive cells (CCRF-CEM lymphoblasts [2]; 1×IC50, 24 h): 3.92%
- >G2/M (polyploidy), % of positive cells (CCRF-CEM lymphoblasts [2]; 1×IC50, 24 h): 13.86%
- G0/G1, % of positive cells (CCRF-CEM lymphoblasts [2]; 1×IC50, 24 h): 38.18%
- G2/M, % of positive cells (CCRF-CEM lymphoblasts [2]; 1×IC50, 24 h): 23.92%
- S, % of positive cells (CCRF-CEM lymphoblasts [2]; 1×IC50, 24 h): 37.90%
- <G1 (sub-G1, fragmented DNA), % of positive cells (CCRF-CEM lymphoblasts [2]; 5×IC50, 24 h): 11.48%
- >G2/M (polyploidy), % of positive cells (CCRF-CEM lymphoblasts [2]; 5×IC50, 24 h): 17.77%
- G0/G1, % of positive cells (CCRF-CEM lymphoblasts [2]; 5×IC50, 24 h): 4.31%
- G2/M, % of positive cells (CCRF-CEM lymphoblasts [2]; 5×IC50, 24 h): 68.38%
- S, % of positive cells (CCRF-CEM lymphoblasts [2]; 5×IC50, 24 h): 27.32%
- IC50 at 72 h [3]: 0.038 ± 0.011 µM
- BrDU, % of positive cells (CCRF-CEM lymphoblasts [4]; 1×IC50, 24 h): 46.72%
- BrDU, % of positive cells (CCRF-CEM lymphoblasts [4]; 5×IC50, 24 h): 8.89%
- IC50 at 72 h [5]: 3.2 ± 0.89 µM
- IC50 [6]: > 50 µM
- IC50 [7]: > 50 µM
- IC50 [8]: 1.96 ± 0.26 µM
- IC50 [9]: 1.27 ± 0.12 µM
- IC50 [10]: > 50 µM
- inhibitory activity against tubulin polymerisation (in words) (porcine brain tubulin): comparable or better inhibitory activity
- IC50 (U2OS (osteosarcoma)): 5.26 ± 1.69 µM
- IC50 at 72 h [11]: > 50 µM
- pH3Ser10, % of positive cells (CCRF-CEM lymphoblasts [12]; 1×IC50, 24 h): 8.42%
- pH3Ser10, % of positive cells (CCRF-CEM lymphoblasts [12]; 5×IC50, 24 h): 41.35%
- BrU, % of positive cells (CCRF-CEM lymphoblasts [13]; 1×IC50, 24 h): 23.92%
- BrU, % of positive cells (CCRF-CEM lymphoblasts [13]; 5×IC50, 24 h): 38.94%
- IC50 [14]: 2.02 ± 0.3 µM

Source: PMC467089, “Click estradiol dimers with novel aromatic bridging units: synthesis and anticancer evaluation” (Journal of Enzyme Inhibition and Medicinal Chemistry, 2024)
